In patent US20240217963A1, “RECEPTOR-INTERACTING PROTEIN 1 INHIBITORS, PREPARATIONS, AND USES THEREOF” (SIRONAX LTD., priority 2021, published 2024):

What follows are compounds tested against T1, RIP1 (Homo sapiens, UniProt Q13546) (assay: Cellular RIP1 inhibitory activity: HT-29 necroptosis (TNFα/SMAC mimetic/zVAD-FMK) CellTiter-Glo viability assay). Conditions: HT-29 cells, TNF-α 10 ng/ml + SMAC mimetic 6 μM + zVAD-FMK 10 μM, 20 hours, geometric mean, read-out: EC50 Values of in vitro Cellular RIP1 Inhibitory Activity.
T1 sequence (Q13546 1-671): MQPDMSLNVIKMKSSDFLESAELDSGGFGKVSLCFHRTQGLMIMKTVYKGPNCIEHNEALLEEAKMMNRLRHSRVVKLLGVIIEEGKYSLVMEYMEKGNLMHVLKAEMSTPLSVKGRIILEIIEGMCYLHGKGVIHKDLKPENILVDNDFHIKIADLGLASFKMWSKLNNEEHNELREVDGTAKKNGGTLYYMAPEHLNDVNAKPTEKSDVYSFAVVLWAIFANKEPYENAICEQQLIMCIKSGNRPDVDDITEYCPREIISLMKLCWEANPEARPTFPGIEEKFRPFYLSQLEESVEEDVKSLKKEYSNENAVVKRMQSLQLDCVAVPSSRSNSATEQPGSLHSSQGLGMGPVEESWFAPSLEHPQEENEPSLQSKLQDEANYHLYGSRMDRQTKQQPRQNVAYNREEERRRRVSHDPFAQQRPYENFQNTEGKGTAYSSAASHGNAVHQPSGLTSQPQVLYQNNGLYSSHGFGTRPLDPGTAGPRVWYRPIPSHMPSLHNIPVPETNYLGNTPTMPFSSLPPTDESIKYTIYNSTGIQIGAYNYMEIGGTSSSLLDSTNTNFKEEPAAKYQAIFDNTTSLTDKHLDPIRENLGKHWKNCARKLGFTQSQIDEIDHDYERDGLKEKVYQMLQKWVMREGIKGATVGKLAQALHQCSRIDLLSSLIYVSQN
Format: cell-based
Experimental: Compounds 1-99 (denoted as Cmpd Nos. 1 through 99 in Table 2 below) of the disclosure were tested for binding and cellular RIP1 inhibitory activity following the experimental procedures described below. Cell Seeding • 1. HT-29 cells were checked every day to make sure that they were healthy and growing as expected. They were subjected to sub-culturing when they were approximately 80% confluent. • 2. The culture medium, McCOY's 5 A medium (Gibco, Cat No. 16600-082) with 10% fetal bovine serum or FBS (Gibco, Cat No. 10099-141C), was pre-warmed in a 37° C. water bath for at least 30 min. • 3. When the cells had reached a desired level of confluency of 80% in a T75 flask, the medium was aspirated, and the cells were washed with warm phosphate buffered saline or PBS two times. • 4. 2-3 ml fresh warm trypsin (Gibco, Cat No. 25200-056) solution was added to the washed cells. The flask with the cells was transferred to a 37° C. incubator. • 5. After 5 minutes, the side of the flask was tapped, and the flask was examined under a microscope for detachment of the cells to the flask. If necessary, the cells were kept in the incubator for an additional 5-10 minutes, with occasional tapping, until lifting was complete. • 6. The trypsin reaction was neutralized by transferring 6-9 ml cell culture medium to sterile 15 ml conical tubes, and by centrifuging the cell culture at 300×g for 7 minutes to pellet the cells (supernatant decanted). • 7. The cells were resuspended in fresh cell culture medium and the cell counting was performed using a hemocytometer. • 8. 100 μl of the resuspended cell culture medium containing ˜5,000 cells were transferred into each well of the sterile 96-well cell culture plate (Corning 3903) and cultured overnight at 37° C. with 5% CO2. Compound Titration and Treatment • 1. All test compounds were dissolved in DMSO (Dimethyl sulfoxide) to create a 20 mM stock. • 2. 3 μl of each compound 20 mM stock was mixed with 27 μl DMSO, and the compound solution was further diluted at a titration ratio of 1:3 (20 μl compound solution+40 μl DMSO) till the 10 points end. • 3. All culture medium was removed from assay plates filled with HT-29 cell cultures. […] 0.5 μL of the diluted compound solution was added to the corresponding 96-well assay plates. • 5. The assay plates were incubated for 20 hours at 37° C. with 5% CO2. Cell Viability Detection • 1. The CellTiter-Glo® Luminescent Cell Viability Assay was employed to detect the ATP levels of viable HT-29 cells. • 2. The CellTiter-Glo® buffer and the lyophilized substrate were equilibriated to room temperature prior to use. • 3. The CellTiter-Glo® substrate was resuspended with CellTiter-Glo® buffer, then mixed by gently vortexing to obtain a homogeneous solution. • 4. 20 μl the enzyme/substrate mixture was transferred by multi-channel pipetting into 96-well assay plates. • 5. The assay plates were placed on an orbital shaker and the contents were shaken for 3 minutes to induce cell lysis. • 6. The assay plates were incubated at room temperature for 10 minutes to stabilize the luminescent signal. • 7. The luminescence signals were read and recorded with EnVision. • 8. The geometric mean EC50 values were calculated from 10 points response dose with duplicates. In Table 2, activity is provided as follows: +++=0.1 nM≤EC50<100 nM; ++=100 nM≤EC50<1000 nM; +=1000 nM≤EC50<10000 nM.
`Cc1cnn(C)c1-c1nc(N2CCC(C(=O)N(O)Cc3cccnc3F)CC2)ncc1F` [Compound 25, 1-(4-(1,4-dimethyl-1H-pyrazol-5-yl)-5-fluoropyrimidin-2-yl)-N-((2-fluoropyridin-3-yl)methyl)-N-hydroxypiperidine-4-carboxamide] was tested, and the EC50 was 0.1 to 100 nM. `[2H]C([2H])([2H])N(C(=O)C1CCN(c2nc(-c3c(C)cnn3C)ncc2F)CC1)C([2H])([2H])c1cc(F)cc(F)c1F` [Compound 73, 1-(2-(1,4-dimethyl-1H-pyrazol-5-yl)-5-fluoropyrimidin-4-yl)-N-(methyl-d3)-N-((2,3,5-trifluorophenyl)methyl-d2)piperidine-4-carboxamide] gave an EC50 of 0.1 to 100 nM. `CCN(Cc1cc(F)cc(F)c1)C(=O)C1CCN(c2cc(-c3c(C)cnn3C)ncn2)CC1` [Compound 89, N-(3,5-difluorobenzyl)-1-(6-(1,4-dimethyl-1H-pyrazol-5-yl)pyrimidin-4-yl)-N-ethylpiperidine-4-carboxamide] gave an EC50 of 100 to 1000 nM. In the case of `Cc1ncc(CN(C)C(=O)C2CCN(c3ncc(F)c(-c4c(C)cnn4C)n3)CC2)s1` [Compound 91, 1-(4-(1,4-dimethyl-1H-pyrazol-5-yl)-5-fluoropyrimidin-2-yl)-N-methyl-N-((2-methylthiazol-5-yl)methyl)piperidine-4-carboxamide], the EC50 is reported as 0.1 to 100 nM. In the case of `[2H]C([2H])([2H])N(C(=O)C1CCN(c2ncc(F)c(-n3nc(C)nc3C)n2)CC1)C([2H])([2H])c1cc(F)cc(F)c1F` [Compound 76, 1-(4-(3,5-dimethyl-1H-1,2,4-triazol-1-yl)-5-fluoropyrimidin-2-yl)-N-(methyl-d3)-N-((2,3,5-trifluorophenyl)methyl-d2)piperidine-4-carboxamide], the EC50 is reported as 0.1 to 100 nM. `Cc1cnn(C)c1-c1nc(N2CCC(C(=O)NCc3cc(F)cc(F)c3F)CC2)ncc1F` [Compound 6, 1-(4-(1,4-dimethyl-1H-pyrazol-5-yl)-5-fluoropyrimidin-2-yl)-N-(2,3,5-trifluorobenzyl)piperidine-4-carboxamide] was tested, and the EC50 was 0.1 to 100 nM. With `Cc1cnn(C)c1-c1nc(N2CCC(C(=O)N(C)Cc3nccs3)CC2)ncc1F` [Compound 95, 1-(4-(1,4-dimethyl-1H-pyrazol-5-yl)-5-fluoropyrimidin-2-yl)-N-methyl-N-(thiazol-2-ylmethyl)piperidine-4-carboxamide] the EC50 was 0.1 to 100 nM. Compound `Cc1cnn(C)c1-c1cc(N2CCC(C(=O)N(O)Cc3cc(F)cc(F)c3)CC2)ncn1` [Compound 41, N-(3,5-difluorobenzyl)-1-(6-(1,4-dimethyl-1H-pyrazol-5-yl)pyrimidin-4-yl)-N-hydroxypiperidine-4-carboxamide] has an EC50 of 0.1 to 100 nM. In the case of `Cc1cnn(C)c1-c1nc(N2CCC(C(=O)N(O)Cc3ncccc3Cl)CC2)ncc1F` [Compound 9, N-((3-chloropyridin-2-yl)methyl)-1-(4-(1,4-dimethyl-1H-pyrazol-5-yl)-5-fluoropyrimidin-2-yl)-N-hydroxypiperidine-4-carboxamide], the EC50 is reported as 0.1 to 100 nM. For `Cc1cnn(C)c1-c1nc(N2CCC(C(=O)N(O)Cc3cncn3C)CC2)ncc1F` [Compound 40, 1-(4-(1,4-dimethyl-1H-pyrazol-5-yl)-5-fluoropyrimidin-2-yl)-N-hydroxy-N-((1-methyl-1H-imidazol-5-yl)methyl)piperidine-4-carboxamide], the EC50 was 1000 to 10000 nM. With `Cc1cnn(C)c1-c1nc(N2CCC(C(=O)N(O)Cc3cnco3)CC2)ncc1F` [Compound 23, 1-(4-(1,4-dimethyl-1H-pyrazol-5-yl)-5-fluoropyrimidin-2-yl)-N-hydroxy-N-(oxazol-5-ylmethyl)piperidine-4-carboxamide] the EC50 was 0.1 to 100 nM. `Cc1cnn(C)c1-c1nc(N2CCC(C(=O)N(O)Cc3cncc(C#N)c3)CC2)ncc1F` [Compound 52, N-((5-cyanopyridin-3-yl)methyl)-1-(4-(1,4-dimethyl-1H-pyrazol-5-yl)-5-fluoropyrimidin-2-yl)-N-hydroxypiperidine-4-carboxamide] showed an EC50 of 0.1 to 100 nM. With `Cc1cnn(C)c1-c1nc(N2CCC(C(=O)N(C)Cc3nc(C)c(C)s3)CC2)ncc1F` [Compound 90, 1-(4-(1,4-dimethyl-1H-pyrazol-5-yl)-5-fluoropyrimidin-2-yl)-N-((4,5-dimethylthiazol-2-yl)methyl)-N-methylpiperidine-4-carboxamide] the EC50 was 0.1 to 100 nM. Compound `CCN(Cc1cnn(C)c1)C(=O)C1CCN(c2ncc(F)c(-c3c(C)cnn3C)n2)CC1` [Compound 84, 1-(4-(1,4-dimethyl-1H-pyrazol-5-yl)-5-fluoropyrimidin-2-yl)-N-ethyl-N-((1-methyl-1H-pyrazol-4-yl)methyl)piperidine-4-carboxamide] has an EC50 of 100 to 1000 nM. For `CCN(Cc1sc(C)nc1C)C(=O)C1CCN(c2ncc(F)c(-c3c(C)cnn3C)n2)CC1` [Compound 70, 1-(4-(1,4-dimethyl-1H-pyrazol-5-yl)-5-fluoropyrimidin-2-yl)-N-((2,4-dimethylthiazol-5-yl)methyl)-N-ethylpiperidine-4-carboxamide], the EC50 was 1000 to 10000 nM. For `Cc1nnc(CN(C)C(=O)C2CCN(c3ncc(F)c(-c4c(C)cnn4C)n3)CC2)s1` [Compound 87, 1-(4-(1,4-dimethyl-1H-pyrazol-5-yl)-5-fluoropyrimidin-2-yl)-N-methyl-N-((5-methyl-1,3,4-thiadiazol-2-yl)methyl)piperidine-4-carboxamide], the EC50 was 100 to 1000 nM. Work on `Cc1cnn(C)c1-c1nc(N2CCC(C(=O)N(O)Cc3cncc(F)c3)CC2)ncc1F` [Compound 37, 1-(4-(1,4-dimethyl-1H-pyrazol-5-yl)-5-fluoropyrimidin-2-yl)-N-((5-fluoropyridin-3-yl)methyl)-N-hydroxypiperidine-4-carboxamide] yielded an EC50 of 0.1 to 100 nM. `Cc1cnn(C)c1-c1ccc(OC2CC(C(=O)N(O)Cc3cc(F)cc(F)c3)C2)c(F)n1` (stereo not drawn) [Compound 54, N-(3,5-difluorobenzyl)-3-((6-(1,4-dimethyl-1H-pyrazol-5-yl)-2-fluoropyridin-3-yl)oxy)-N-hydroxycyclobutane-1-carboxamide] showed an EC50 of 100 to 1000 nM. Work on `CCN(Cc1nc(C)cs1)C(=O)C1CCN(c2ncc(F)c(-c3c(C)cnn3C)n2)CC1` [Compound 72, 1-(4-(1,4-dimethyl-1H-pyrazol-5-yl)-5-fluoropyrimidin-2-yl)-N-ethyl-N-((4-methylthiazol-2-yl)methyl)piperidine-4-carboxamide] yielded an EC50 of 0.1 to 100 nM. Compound `Cc1cnn(C)c1-c1nc(N2CCC(C(=O)N(O)Cc3nccn3C)CC2)ncc1F` [Compound 39, 1-(4-(1,4-dimethyl-1H-pyrazol-5-yl)-5-fluoropyrimidin-2-yl)-N-hydroxy-N-((1-methyl-1H-imidazol-2-yl)methyl)piperidine-4-carboxamide] has an EC50 of 1000 to 10000 nM. With `Cn1ncnc1-c1nc(N2CCC(F)(C(=O)N(O)Cc3cc(F)cc(F)c3)CC2)ncc1F` [Compound 19, N-(3,5-difluorobenzyl)-4-fluoro-1-(5-fluoro-4-(1-methyl-1H-1,2,4-triazol-5-yl)pyrimidin-2-yl)-N-hydroxypiperidine-4-carboxamide] the EC50 was 0.1 to 100 nM.
